Assays:
[1] = tested on: amino acid dehydrogenase; experiment: Substrate specificity of the purified amino acid dehydrogenase (reductive amination of 2-oxo acids); assay type: biochemical, Rhodococcus qingshengii strain KNK2108; details: activity for phenylpyruvic acid = 100%; 30° C., pH 9.0; naphthylpyruvic and indolepyruvic acid by HPLC of the product formed in 30 minutes
Experimental: In the embodiments, the amino acid dehydrogenase activity of the polypeptide can be measured, for example, based on the rate of decline in the absorbance at a wavelength of 340 nm when 1.2 mL of 0.5 M NH3/NH4Cl buffer (pH 9.0), 0.2 mL of 0.1 M sodium carbonate buffer (pH 9.0) containing 3 mM NADH coenzyme, and 0.1 mL of an appropriately diluted enzyme solution are added to 1.5 mL of 0.1 M sodium carbonate buffer (pH 9.0) containing 10 mM phenylpyruvic acid as substrate and a reaction is run for 1 minute at 30° C. In the embodiments, the amino acid dehydrogenase activity was measured using this method unless indicated otherwise.
The activity of the amino acid dehydrogenase was measured based on the rate of decline in the absorbance at a wavelength of 340 nm when 1.2 mL of 0.5 M NH3/NH4Cl buffer (pH 9.0), 0.2 mL of 0.1 M sodium carbonate buffer (pH 9.0) that contained 3 mM NADH coenzyme, and 0.1 mL of the appropriately diluted enzyme solution were added to 1.5 mL of 0.1 M sodium carbonate buffer (pH 9.0) that contained 10 mM phenylpyruvic acid substrate and a reaction was carried out for 1 minute at 30° C. 1 unit is defined here as the quantity of enzyme that consumed 1 μmol NADH in 1 minute. The protein was quantified by the Bradford method using BSA as the reference protein.
The substrate specificity of the purified amino acid dehydrogenase was investigated. The enzyme activity was measured by using each substrate in place of the phenylpyruvic acid substrate in the procedure previously described for measuring the enzyme activity. In the case of the enzyme activity for naphthylpyruvic acid, 100 μL of the appropriately diluted enzyme solution was added to 100 μL of 0.1 M sodium carbonate buffer (pH 9.0) that contained 1.0 mg naphthylpyruvic acid, 12.3 mg ammonium sulfate, and 6.1 mg NADH and the increment in the 2-naphthylalanine produced in 30 minutes at 30° C. was determined by quantitation by HPLC. The HPLC analysis was run using the following: column: COSMOSIL 5C18-ARII (4.6 mm×250 mm, Nacalai Tesque, Inc.), eluent: 10 mM potassium phosphate buffer (pH 2.0)/acetonitrile=5/1, flow rate: 1.0 mL/min, column temperature: 40° C., detection: 210 nm. Here, 1 unit is defined as the quantity of enzyme that produces 1 μmol 2-naphthylalanine in 1 minute. In the case of the enzyme activity for indolepyruvic acid, 100 μL of the appropriately diluted enzyme solution was added to 100 μL of 0.1 M sodium carbonate buffer (pH 9.0) that contained 2.0 mg indolepyruvic acid, 26.0 mg ammonium sulfate, and 7.6 mg NADH and the increment in the L-tryptophan produced in 30 minutes at 30° C. was determined by quantitation by HPLC. The HPLC analysis was run using the following: column: CROWNPAK CR—(4.6 mm×150 mm, Daicel Chemical Industries, Ltd.), eluent: aqueous HClO4 (pH 2.0), flow rate: 1.0 mL/min, column temperature: 30° C., detection: 210 nm. Here, 1 unit is defined as the quantity of enzyme that produces 1 μmol L-tryptophan in 1 minute.

[2] = tested on: Rhodococcus maris-derived phenylalanine dehydrogenase; details: cited from earlier work
[3] = biological target: Thermoactinomyces intermedius-derived phenylalanine dehydrogenase (Thermoactinomyces intermedius, UniProt P22823); details: cited from earlier work
Chain of Thermoactinomyces intermedius-derived phenylalanine dehydrogenase (P22823 whole entry): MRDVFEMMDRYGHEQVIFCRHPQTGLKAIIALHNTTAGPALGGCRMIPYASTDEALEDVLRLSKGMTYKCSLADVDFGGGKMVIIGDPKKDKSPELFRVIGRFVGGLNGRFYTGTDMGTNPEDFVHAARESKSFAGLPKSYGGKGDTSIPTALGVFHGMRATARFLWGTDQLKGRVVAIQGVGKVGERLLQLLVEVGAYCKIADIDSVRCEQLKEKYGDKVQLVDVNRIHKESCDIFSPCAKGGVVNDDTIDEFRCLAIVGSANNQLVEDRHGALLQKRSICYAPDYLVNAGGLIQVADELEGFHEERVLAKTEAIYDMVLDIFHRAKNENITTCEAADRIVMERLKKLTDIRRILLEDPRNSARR

[4] = biological target: Rhodococcus sp.-derived phenylalanine dehydrogenase (Rhodococcus sp, UniProt Q59771); details: cited from earlier work
Chain of Rhodococcus sp.-derived phenylalanine dehydrogenase (Q59771 whole entry): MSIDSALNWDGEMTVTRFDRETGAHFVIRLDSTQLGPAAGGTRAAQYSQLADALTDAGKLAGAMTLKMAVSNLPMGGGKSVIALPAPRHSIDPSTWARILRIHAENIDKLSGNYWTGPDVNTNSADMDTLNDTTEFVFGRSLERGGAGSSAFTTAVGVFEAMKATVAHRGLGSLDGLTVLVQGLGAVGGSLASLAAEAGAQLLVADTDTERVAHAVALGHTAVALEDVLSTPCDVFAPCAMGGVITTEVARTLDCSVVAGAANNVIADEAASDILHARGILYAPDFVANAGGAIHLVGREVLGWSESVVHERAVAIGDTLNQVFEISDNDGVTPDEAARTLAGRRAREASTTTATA

[5] = biological target: Bacillus sphaericus-derived phenylalanine dehydrogenase (Lysinibacillus sphaericus, UniProt P23307); details: cited from earlier work
Chain of Bacillus sphaericus-derived phenylalanine dehydrogenase (P23307 whole entry): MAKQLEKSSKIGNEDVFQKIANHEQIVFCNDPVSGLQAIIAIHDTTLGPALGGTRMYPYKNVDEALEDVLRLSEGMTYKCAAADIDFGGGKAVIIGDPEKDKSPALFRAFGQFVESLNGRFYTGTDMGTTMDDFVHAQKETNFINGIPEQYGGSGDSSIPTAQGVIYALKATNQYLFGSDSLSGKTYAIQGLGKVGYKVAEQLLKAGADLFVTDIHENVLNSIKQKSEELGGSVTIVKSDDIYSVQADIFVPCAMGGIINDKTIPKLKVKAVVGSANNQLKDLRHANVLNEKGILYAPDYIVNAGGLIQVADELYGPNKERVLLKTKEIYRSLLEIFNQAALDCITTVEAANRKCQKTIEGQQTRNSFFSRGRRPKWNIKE

[6] = tested on: Microbacterium sp.-derived phenylalanine dehydrogenase; details: cited from earlier work
[7] = biological target: T1, Sporosarcina ureae-derived phenylalanine dehydrogenase (Sporosarcina ureae, UniProt P97014); details: cited from earlier work
T1 sequence (P97014 1-379): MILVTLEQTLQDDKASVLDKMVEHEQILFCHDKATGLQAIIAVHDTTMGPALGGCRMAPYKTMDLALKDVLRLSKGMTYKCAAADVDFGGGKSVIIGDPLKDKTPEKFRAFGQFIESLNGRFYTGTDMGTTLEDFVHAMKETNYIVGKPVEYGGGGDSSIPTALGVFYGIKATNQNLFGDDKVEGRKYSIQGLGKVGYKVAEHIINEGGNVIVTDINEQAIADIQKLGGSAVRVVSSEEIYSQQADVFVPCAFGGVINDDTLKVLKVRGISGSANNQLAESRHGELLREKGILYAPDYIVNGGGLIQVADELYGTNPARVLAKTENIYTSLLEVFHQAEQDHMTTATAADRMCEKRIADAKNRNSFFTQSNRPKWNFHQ

| Molecule | Relative activity (%) [1] | enzymatic activity taking the enzymatic activity for phenylpyruvic acid to be 100 [5] | further results |
| --- | --- | --- | --- |
| CSCCC(=O)C(=O)O [2-Oxo-4-(methylthio)butanoic acid] | 34.6% | – | enzymatic activity taking the enzymatic activity for phenylpyruvic acid to be 100 [2]: 9 |
| CC(C)CC(=O)C(=O)O [2-Oxo-4-methylvaleric acid] | 3.5% | – | – |
| O=C(O)C(=O)Cc1ccc(O)cc1 [4-Hydroxyphenylpyruvic acid] | 96.3% | – | enzymatic activity taking the enzymatic activity for phenylpyruvic acid to be 100 [3]: 0; enzymatic activity taking the enzymatic activity for phenylpyruvic acid to be 100 [4]: 5 |
| O=C(O)C(=O)CCc1ccccc1 [Homophenylpyruvic acid] | 19.1% | 3.4 | enzymatic activity taking the enzymatic activity for phenylpyruvic acid to be 100 [6]: 0.1 |
| O=C(O)C(=O)Cc1c[nH]c2ccccc12 [Indolepyruvic acid] | 19.7% | 0.39 | enzymatic activity taking the enzymatic activity for phenylpyruvic acid to be 100 [7]: 0.73; enzymatic activity taking the enzymatic activity for phenylpyruvic acid to be 100 [4]: 3; enzymatic activity taking the enzymatic activity for phenylpyruvic acid to be 100 [2]: 5 |
| O=C(O)C(=O)Cc1ccccc1 [Phenylpyruvic acid] | 100.0% | – | – |
| Naphthylpyruvic acid | 38.8% | 0.46 | – |

Source: patent US9267116B2, “Amino acid dehydrogenase, and process for producing L-amino acid, 2-oxo acid or D-amino acid” (KANEKA CORPORATION, priority 2008, dated 2016)
